This is an account of results in publication PMC6723402, “Secondary Metabolites with α-Glucosidase Inhibitory Activity from the Mangrove Fungus Mycosphaerella sp. SYSU-DZG01” (Marine Drugs, 2019).

One series deals with α-glucosidase. The series can be described thus: α-glucosidase inhibitory activity assay (p-nitrophenyl glycoside substrate, 96-well, 405 nm). In kind it is biochemical. Conditions: PBS pH 7.0, 37 °C. As to the method:
The α-glucosidase inhibitory activity was assayed according to the reported method. The inhibitory activity of α-glucosidase was tested in the 96-well plated with […] PBS (KH2PO4-K2HPO4, pH 7.0) buffer solution each. […] The assay was conducted in a 100 μL reaction system containing 20 μL enzyme stock solution, 69 μL PBS buffers and 1 μL of DMSO or testing materials. After 10 min incubation at 37 °C, 10 μL of the substrate was added and incubated for 20 min at 37 °C. The Absorbance which measured by a BIO-RAD (iMark) microplate reader at 405 nm was used to calculate the inhibitory activity according to the equation:η (%) = [(B − S)/B] × 100%(1) η (%) is the percentage of inhibition; B is the assay medium with DMSO; S is the assay medium with compound. The results of IC50 values were calculated by the nonlinear regression analysis.

Series [1] in a line: DPPH· radical scavenging (antioxidant) assay. Conditions: 30 min; for Antioxidant % Inhibition (100 μM): DPPH· scavenging at 100 μM; for EC50: DPPH· scavenging. As to the method:
The DPPH· scavenging was assayed according to the reported method. The DPPH radical scavenging test was performed in 96-well microplates. Testing materials (compounds 1–11) were added to 150 μL (0.16 mmol/L) DPPH solution in MeOH at a range of 50 μL solutions of different concentrations (2, 25, 50 and 100 μM). After 30 min, absorbance at 517 nm was measured and the percentage of activity was calculated. Ascorbic acid was used as a positive control.
Background: Loss of DPPH colour is used to gauge radical scavenging.

In general, IC50 refers to the concentration that inhibits the measured activity by half. What is called EC50 is the midpoint of the concentration-response curve. As to “1,3-dihydro-5-methoxy-7-methylisobenzofuran [Compound 6]”, the IC50 against α-glucosidase is > 50 µM. In addition, in series [1], the “Antioxidant % Inhibition (100 μM)” value is listed as 65% and the EC50 is 59.1 µM.

Take `O=C1O[C@H]([C@@H](O)CO)C(O)=C1O` [Ascorbic acid, ascorbic acid, reference compound]: in series [1], the “Antioxidant % Inhibition (100 μM)” value worked out at 92% and the EC50 worked out at 22.4 µM.

In turn, `CC1=CC2C=C(C)C(C)C3C(CC(C)C)NC(=O)C23C(=O)C2C3OC(c4c(C)c(O)c(O)c(O)c43)C2C(=O)CCC1` (stereo not drawn) [Compound 1, asperchalasine I] gave an IC50 against α-glucosidase of 17.1 µM. Moreover, in series [1], the “Antioxidant % Inhibition (100 μM)” value was 56% and the EC50 amounted to 77.8 µM.

Consider `CC1=C(C)C2(C)C(=O)C(O)(C1=O)C1(C)C(=O)C2(O)C(=O)C(C)=C1C` [Compound 2, dibefurin B], for which the IC50 at α-glucosidase is > 50 µM. Further, the “Antioxidant % Inhibition (100 μM)” value in series [1] is on record as <50%.

Usually melting point stands for the temperature of the solid-liquid transition. For the compound `CC(O)C1OCc2c(O)cccc21` [Compound 3, (R)-9-((R)-10-hydroxyethyl)-7,9-dihydroisobenzofuran-1-ol], the melting point fell in the range of 89.8 to 91.9 °C. Further, the IC50 at α-glucosidase was > 50 µM. In addition, the “Antioxidant % Inhibition (100 μM)” value in series [1] is on record as <50%.

`COC(=O)c1c(C)c(O)c(O)c(O)c1C=O` [Compound 4, 2-methoxycarbonyl-4,5,6-trihydroxy-3-methyl-benzaldehyde] registered a melting point of 95.9 to 97.8 °C. Further, at α-glucosidase, the 50% inhibitory concentration (IC50) is > 50 µM. In addition, in series [1], the “Antioxidant % Inhibition (100 μM)” value came to 57% and the EC50 turned out to be 85.8 µM.

Consider `Cc1c(O)c(O)c(O)c2c1COC2=O` [Compound 5, epicoccone B], for which the IC50 against α-glucosidase is > 50 µM. Moreover, the “Antioxidant % Inhibition (100 μM)” value in series [1] is listed as <50%.

For the compound `Cc1c(O)cc(O)c(C(=O)OC[C@@H](O)[C@H](O)[C@H](O)CO)c1C` [Compound 7, paeciloside A], the IC50 against α-glucosidase is > 50 µM. Besides, in series [1], the “Antioxidant % Inhibition (100 μM)” value is given as <50%.

As for `Cc1c(O)c(O)c(O)c(C=O)c1-c1cc2c(C=O)c(C)c(O)c(O)c2o1` [Compound 8, epicoccolide B], the IC50 against α-glucosidase was determined as 26.7 µM. For the same compound, in series [1], the “Antioxidant % Inhibition (100 μM)” value turned out to be 89% and the midpoint of the response, the EC50, lay at 16.3 µM.
